This is an account of results in patent US20210386674A1, “MODIFIED RELEASE TABLET FORMULATIONS CONTAINING PHOSPHODIESTERASE INHIBITOR” (UNION therapeutics A/S, priority 2019, published 2021).

Series [1] in a line: Solubility of Compound A. Format: physicochemical.
Series [2] in a line: Oral absorption window in the gastrointestinal tract. Format: in vivo. Conditions: given orally; upper part of the gastrointestinal tract.

Take `O=C(Cc1c(Cl)c[n+]([O-])cc1Cl)c1ccc(OC(F)F)c2c1OC1(CCS(=O)(=O)CC1)O2` [Compound A, 2-(3,5-Dichloro-1-oxido-pyridine-4-yl)-1-(7-difluoro-methoxy-2′,3′,5′,6-tetrahydro-spiro[1,3-benzodioxole-2,4-(4H)-thiopyran-1′,1′-dioxide]-4-yl)ethanone]: the Solubility result in series [1] is listed as “poorly soluble”. The Absorption window entry in series [2] is recorded as “very narrow absorption window”.
